Reference: patent US11278589B2, “Use of a cyclic tripeptide for improving cellular energy metabolism” (ASSISTANCE PUBLIQUE—HOPITAUX DE PARIS, priority 2015, dated 2022)
Positions of bridges follow the written chain, without caps; N, C: chain ends. Residues, ends and D or L forms follow the SMILES beside them.

System: Human oocytes
Experiment: Randomized prospective study in human IVF (fertilin study)
Format: in vivo
Details: first step, 56 couples
Description: A clinical trial was begun in the IVF laboratory of the MAP Center of Cochin, on Sep. 8, 2014, on 66 couples, the average age being 34.3±4.2 years old for the women and 37.0±5.2 for their partners. It is a randomized, single-center prospective study of in vitro fertilization (IVF) carried out in the presence or absence of FEEc. The oocytes, recovered from their cumulus, were divided up into two groups alternately into one and then into the other according to their order of recovery. When all the oocytes were recovered, a technician who had not participated in the recovery of the cumuli determined by randomization which of the two groups was inseminated in the presence of FEEc and which served as control. One part of the oocytes is incubated in the standard culture medium (Global, JCD), the other part in this same medium supplemented with 100 μM FEEc.
The methodology of this study, represented diagrammatically in FIG. 9, is presented below. Human oocytes originating from women 18 to 43 years old were recovered by ovarian puncture after hormonal stimulation by gynecologists. They were divided up in a randomized manner into 2 groups: the oocytes incubated in the presence of a standard culture medium supplemented with 100 μM FEEc or of a standard culture medium (Global, JCD), then placed in an incubator at 37° C. under an atmosphere of 5% of CO2. […]

`N[C@H]1CSSC[C@@H](C(=O)O)NC(=O)[C@H](CCC(=O)O)NC(=O)[C@H](CCC(=O)O)NC(=O)[C@H](Cc2ccccc2)NC(=O)[C@H](CO)NC1=O` [FEEc, C-S-F-E-E-C] (H-CSFEEC-OH; disulfide 1-6) was tested, and the adverse effect was “No adverse effect has been reported to date”.
